Here are results for three compounds from patent US20040106681A1, “Dosage escalation and divided daily dose of anti-depressants to treat neurological disorders” (priority 2002, published 2004).

Where a name gives a salt, the structure may show the parent alone.

For data set [1] the following is noted: pretreatment; repeatedly stressed rats; cited from earlier work.
Data set [2] in a line: Example 1 gradual dose escalation study in fibromyalgia. The class given is in vivo, human. The settings on record: out of approximately 70 treated; weekly escalation 25, 50, 100, 200 mg daily. An excerpt:
This study was undertaken to characterize the efficacy of milnacipran in treatment of fibromyalgia syndrome (FMS). A secondary objective was to evaluate the relationship between daily dose administered, frequency of dosing, and efficacy in treatment of FMS. […] In this study, daily dosages were gradually escalated.
Subjects who met the 1990 ACR criteria for fibromyalgia syndrome were eligible for enrollment. Patients recorded baseline symptoms for the first two weeks after washing off anti-depressants, hypnotics and certain other drugs that potentially could interfere with efficacy measurements. […] If the patient tolerated this dosage, they were stepped up to a 50 mg daily dosage for week two, 100 mg for week three, and 200 mg for week four, or a matching placebo. If dose-limiting toxicities were encountered during any given week, the patient was stepped down to the previous week's dosage and maintained at that dosage for the remainder of the study. Subjects continued to take their maximum tolerated dose (up to 200 mg) for an additional 8 weeks. Patients may receive a total of 12 weeks of medication. Dose-limited toxicity is defined as the occurrence of a drug-related grade 3-4 adverse event.
Efficacy was measured using FMS status assessments prior to receiving the first dose and during monthly clinic visits. […]

The nature of data set [3]: Example 2 12-week randomized, double-blind placebo-controlled dose escalation monotherapy trial in FMS. The format is in vivo, human. The settings on record: for Intolerance (dose escalation failures, number of patients): 36 total patients. As for the experimental part: After an initial period when patients were washed off pain medication, centrally acting stimulants, antidepressants and sedative-hypnotics, a two-week baseline period was begun. […] All patients were escalated over a 4-week period in weekly steps from 25 mg daily, to 50, 100, and finally 200 mg daily, or until dose-limiting toxicity (DLT) was evident. The presence of DLT was evaluated by the study center each week prior to authorizing the patient to step up to the next higher dosage. In the event that DLT was evident, the patient was stabilized at the previously well-tolerated dosage, and remained on this dose for eight weeks at stable dose therapy. Patients who successfully reached the 200 mg daily dose were also then treated for an additional 8 weeks at that dose.
At any give dose level, milnacipran QD patients would receive the full dose of milnacipran in the morning and receive placebo at night. Milnacipran BID patients would receive the same total amount in a split dose given morning and evening. During the study, patents were asked to carry an electronic diary and record pain, fatigue, sleep, and functional information. The custom designed diary captured spontaneous pain data in several ways, including
(1) random daily prompts (the device notified the patient to record their current level of pain 4-5 times per day);
(2) a morning daily prompt querying about the previous 24-hours' pain;
(3) a Friday night weekly report asking about the patient's average pain for the past week.
The electronic assessments were supplemented with traditional pain, mood, and quality of life inventories during clinic visits. The diaries implemented an electronic version of the Gracely anchored logarithmic pain scale. This scale asks patients to choose between “extremely intense,” “very intense,” “intense,” “strong,” “slightly intense,” “barely strong,” “moderate,” “mild,” “very mild,” “weak,” “very weak,” “faint,” and “no pain” sensation to describe their pain.
During the 4th, 8th, and 12th week of treatment, patients visited the clinic, where a number of standard outcome measures including the SF-36, the McGill pain questionnaire, the Beck, the STPI, the fibromyalgia impact questionnaire, and several pain measures were administered. Safety information was also collected at these clinic visits.
The primary endpoint was defined as the change in pain score from baseline to endpoint based on pain scores collected on the patient electronic diary (PED). Endpoint was defined as week twelve for assessments with a single value (such as clinic measures) or the average of scores at weeks 11 and 12 for diary-based outcomes. “Responders” were defined as those patients an improvement in pain score of at least 30%.

Data set [4] is described as follows: swim stress test, hot plate response latency (thermal nociception threshold). The class given is in vivo, Sprague-Dawley rats. As for the experimental part:
(§1) The treatment groups of rats were the following: (1) stressed—forced swimming in 20 cm of water; (2) sham—swimming in 2-3 cm of water; (3) naive—left undisturbed in cage.
(§2) The rats were tested for thermal nociception threshold by hot plate response latency (in seconds). The rats were tested for muscle hyperalgesia by measuring grip strength (in kg) by algometer.
(§3) Data on hot plate response latency and grip strength was acquired on days 7 and 11.

Data set [5] in a line: swim stress test, grip strength (muscle hyperalgesia). The format is in vivo, Sprague-Dawley rats. As for the experimental part: as §1, §2, §3
Setting [6] is: pretreatment, 10 or 30 mg/kg/day IP QD days 1-11, swim stress days 8-10.
Where [7] appears, read: treatment after swim stress, drug days 5-10, swim stress days 2-4.

Take `CNCCC(Oc1ccc(C(F)(F)F)cc1)c1ccccc1.Cl` (racemic) [fluoxetine, (±)-N-methyl-3-phenyl-3-[(α,α,α-trifluoro-p-tolyl)oxy]propylamine hydrochloride]: the “development of cutaneous hyperalgesia” value in data set [1] was “prevent the development of cutaneous hyperalgesia”.
`CCN(CC)C(=O)[C@@]1(c2ccccc2)C[C@H]1CN` (racemic) [milnacipran, (±)-cis-2-(aminomethyl)-N,N-diethyl-1-phenylcyclopropanecarboxamide hydrochloride]: in data set [2], the “patients who failed to tolerate 200 mg/day” value stood at 9. In data set [3] (1-7 scale (1 very much improved, 4 unchanged, 7 very much worse), endpoint, 38 MIL patients, QD and BID pooled), the “patient global pain score, mean value” amounted to 2.3. Also, in data set [3] (BID dosing), the “% Dose Intolerance” value is listed as 6% and the “Intolerance (dose escalation failures, number of patients)” value was found to be 2. Moreover, the “difference in Beck scores at endpoint versus placebo” value in data set [3] (FMS patients meeting definition of MDE, pooled milnacipran groups, p=0.03) is “significant”. The “daily sleep quality scores, improvement versus placebo” value in data set [3] (QD and BID, 12-week treatment) is recorded as “No significant improvement”. In data set [3] (QD dosing), the “% Dose Intolerance” value was 19% and the “Intolerance (dose escalation failures, number of patients)” value was found to be 7. The “worsening of sleep quality” value in data set [3] (in vivo) is reported as “no worsening”. Also, the “patient electronic diary (PED) pain scores of responders” value in data set [3] (milnacipran BID, weeks 2-6, dose escalation) is “improvement”. Also, in data set [3] (throughout 12-week treatment), the “24-hour daily pain reported scores, BID versus QD” value is “BID dosing was more effective than QD dosing”. Moreover, the “swim stress-induced reductions in hot plate latency” value in data set [4] (setting [6]) was “not prevented”. Further, the “swim stress-induced reductions in hot plate response latency” value in data set [4] (setting [7]) is on record as “did not reverse”. Also, the “stress-induced reduction in grip strength” value in data set [5] (setting [6]) is recorded as “prevented”. For the same compound, in data set [5] (setting [7]), the “reduction in grip strength caused by repeated forced swim stress” value was “did reverse”.
For `CN(C)CCCN1c2ccccc2CCc2ccc(Cl)cc21` [clormipramine], the “development of cutaneous hyperalgesia” value in data set [1] is on record as “prevent the development of cutaneous hyperalgesia”.
